We go through one compound from paper PMC6500982 (Cancer Science, 2019).

Data set [1] in a line: Pharmacokinetics of plasma tirabrutinib, Cycle 1 Day 1 and Day 28. The class given is in vivo, human.
For data set [2] the following is noted: B‐cell NHL, European phase I study; cited from earlier work.

On to `CC#CC(=O)N1CC[C@@H](n2c(=O)n(-c3ccc(Oc4ccccc4)cc3)c3c(N)ncnc32)C1` [tirabrutinib], for which the Pharmacokinetics linearity result in data set [1] (160 mg QD to 300 mg BID) is on record as “linear”. Moreover, the “Increase in Cmax and AUC with dose” value in data set [1] (160 to 480 mg QD) was “increased in a dose‐dependent manner”. Besides, in data set [1] (C1D28), the “Arithmetic mean trough plasma concentration, 300 mg BID vs 480 mg QD” value is 3.2 fold. The “Accumulation following multiple doses” value in data set [1] (Day 28 vs Day 1) is given as “little accumulation”. Besides, the “Tolerability observed up to (dose)” value in data set [2] is “up to 480 mg once daily (QD)”.
